One data set deals with T1, NRP1 b1 domain (Homo sapiens, UniProt O14786).
T1 construct: with the purified recombinant NRP1 b1 domain immobilized on the chip; inferred from Ni-NTA capture), TEV-cleavable (cleaved yes); made in house; host or cells: E. coli Rosetta (DE3)
T1 sequence (O14786 275-424 limits assumed): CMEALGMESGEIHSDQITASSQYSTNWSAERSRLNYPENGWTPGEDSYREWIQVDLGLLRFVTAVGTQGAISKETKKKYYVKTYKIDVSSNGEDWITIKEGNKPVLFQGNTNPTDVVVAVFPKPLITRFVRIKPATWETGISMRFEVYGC
Description: SPR binding to immobilized NRP1 b1 domain (Biacore 4000, CM5 chip). The following applies: steady-state binding, 25 °C, mean ± SD. How it is done: Surface Plasmon Resonance experiments were performed using a Biacore 4000 instrument at a constant temperature of 25 °C. Sensor chips, buffer stock solutions, and immobilization reagents were purchased from GE Healthcare. Recombinant human NRP1-b1 was produced in-house and recombinant human NRP1-ECD (extracellular domain) was purchased from ACRO (catalogue number NR1-H5A228). All other reagents were obtained from Sigma.
PBS containing 0.05% surfactant P20 was used as the running buffer during immobilization. NRP1-b1 was immobilized onto a CM5 chip using random amine coupling. The four flow cells were treated in the same way to optimize throughput. In summary, spots 1 and 2 were activated with the coupling reagents EDC and NHS for 10 min. NRP1-b1 at a concentration of 20 μg/mL in 10 mM sodium acetate pH 5 was injected onto the surface for 10 and 5 min in spots 1 and 2, respectively to generate surfaces with high and low density. […] The unmodified spot 3 was used as a reference.
PBS buffer containing 0.05% surfactant P20 and 3% DMSO was used as the running buffer and sample dilution buffer throughout these experiments. Dose–responses were obtained using a 2-fold sample dilution from 16 μM to 31 nM, using an injection time of 60 s. Surface regeneration between injections was not necessary, but a wash step with 1 M NaCl was included after injection of the highest concentration sample for each compound.
Binding curves were corrected for variations in DMSO concentration and normalized by molecular weight. Binding results to high and low-density surfaces were processed independently and the average ± SD is presented. K Ds reported are derived from steady-state binding responses and therefore correspond to the equilibrium binding affinity of the compounds.
For orientation: SPR reads the build-up and loss of mass on a sensor chip optically.

A short description of data set [1]: Pharmacokinetics in mice, 2 mg/kg iv. The format is in vivo. The conditions noted are these: female, BALB/c, mouse, plasma. As to the method: To test compound drug-like properties, selected compounds with low IC50 were further evaluated for their pharmacokinetic (PK) profile. 6–8 week-old BABL/c female mice were used. Two mg/kg of compounds was formulated in 7.5% DMSO and 92.5% PBS solution and intravenously dosed into the tail vein as a bolus. Blood samples were collected by cardiac puncture at 5, 15, 30, 60, 180, and 240 min post dosing. Plasma samples were prepared by centrifugation at 7000 rpm for 5 min, and supernatants were collected, immediately snap-frozen on dry ice and stored at −20 °C. Samples were analyzed by liquid chromatography-tandem mass spectrometry using electrospray ionization and data was analyzed by WinNonlin software.

For the next data set, the target named is T2, NRP1-a1,b1 (Homo sapiens, UniProt O14786).
T2 sequence (O14786 273-427 limits assumed): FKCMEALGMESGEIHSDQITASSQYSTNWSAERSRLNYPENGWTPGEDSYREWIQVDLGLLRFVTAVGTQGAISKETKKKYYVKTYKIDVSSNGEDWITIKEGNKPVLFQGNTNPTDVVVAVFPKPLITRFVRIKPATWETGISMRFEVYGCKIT
The experiment in a line: bt-VEGFA cell-free competition binding assay (plate-based). The following applies: plate-based assay; Figure 2D; read-out: IC50, competitive inhibition of bt-VEGFA binding to NRP1. As to the method:
The assay was conducted as previously described. Briefly, the 96-well plates were precoated with NRP1 protein at 3 μg/mL overnight at 4 °C. On the following day, the plates were treated with blocking buffer (PBS containing 1%1% BSA) and washed three times with wash buffer (PBS containing 0.1% Tween-20). The various concentrations of compounds diluted in PBS containing 1%1% DMSO were added, followed by addition of 0.25 nM of bt-VEGFA165. After 2 h of incubation at room temperature, the plates were washed three times with wash buffer. The bound bt-VEGFA165 to NRP1 was detected by streptavidin– horseradish peroxidase conjugates and the enzyme substrate, and measured using a Tecan Genius plate reader at 450 nm with a reference wavelength at 595 nm. Nonspecific binding was determined in the absence of NRP1-coated wells of the plates.

Data set [2] is described as follows: Solubility (observation during SPR). The class given is physicochemical. The following applies: noted with SPR data fitting.
Data set [3] relates to VEGFA-induced mechanical allodynia in rats. Description: VEGFA-induced mechanical allodynia (von Frey), intraplantar injection. The format is in vivo, rat. How it is done: (§1) The procedure was performed as reported previously. Briefly, rats were gently restrained in a fabric cloth and given an intraplantar injection in the hind-paw containing VEGFA165 (10 nM) and compound (EG00229 or 12h, at 30 or 10 μM) alone or in combination in 50 μL of PBS vehicle (NaCl 137 mM, KCl 2.5 mM, Na2HPO4 10 mM, and KH2PO4 1.8 mM), using a 31G needle.

Data set [4] concerns T180/Y182 phosphorylated p38 (P-p38) in retinal endothelium. Description: VEGFA-induced p38 phosphorylation in ex vivo mouse retina (immunostaining). The format is cell-based. As to the method: Retinae from C57Bl/6J mice were fixed in 4% formaldehyde in PBS for 1 h and washed three times with PBS. After 1 h in blocking buffer (3% Triton X-100, 1%1% Tween and 0.5% BSA in 2× PBS), retinae were immunostained by incubation with rabbit anti-P-p38 MAPK (Thr180/Tyr182) antibody (Cell Signaling) and biotin-conjugated Isolectin B4 (IB4, Merck) overnight at 4 °C, followed by Alexa Fluor 555–conjugated goat antirabbit antibodies (Invitrogen) and Alexa Fluor 488-conjugated streptavidin (Invitrogen) respectively for 1 h at rt. Images were acquired with a Zeiss Axioskop 2 microscope, using a ph3 Plan-Apochromat 63×/1.40 oil objective, Hamamatsu camera and the HCImage software. Each image was acquired as an RGB color image and then processed with ImageJ software version 1.52a (NIH Bethesda). Channels were split to separate the IB4 staining (green channel) from the P-p38 staining (red channel). The threshold function was used on the IB4 image to determine the area of the vessels and to generate a mask that was restored in the red channel image to measure the area of the vessels positive to P-p38 staining. The P-p38 staining area was normalized against the area stained with IB4. Three retinae from three different mice per condition were used for analysis. One-way ANOVA was used to compare the different treatments.

Data set [5] has as its system P-p38 in human brain endothelial cell line hCMEC/D3. Description: p38 phosphorylation in hCMEC/D3 cells (immunoblotting). The class given is cell-based. As to the method: Cell lysates of the human brain endothelial cell line hCMEC/D3 were prepared in RIPA buffer containing 0.1% SDS, protease inhibitor cocktail 2 and phosphatase inhibitor cocktail (Sigma-Aldrich). Proteins were separated by SDS-PAGE and transferred to nitrocellulose by wet electrotransfer. Membranes were blocked with 5% milk in Tris-buffered saline (TBS) overnight at 4 °C and then incubated with the appropriate primary antibody diluted in TBS containing 0.1% Tween-20 and 1% BSA for 2 h and 30 min at rt; the primary antibodies used were specific for phospho P-p38, p38 (1:1000; Cell Signaling Technology) and GADPH (1:10000; Merck). Membranes were washed with 0.1% Tween-20 in TBS and then incubated with goat antimouse or goat antirabbit horseradish peroxidase (HRP)-conjugated IgG (GE Healthcare) diluted 1:10,000 or 1:5000, respectively, with 0.1% Tween-20, 1% BSA in PBS. Membranes were developed using the ECL reagents (Roche) and images were acquired with the Bio-Rad ChemiDoc MP Imaging System and the Bio-Rad Image Lab software (version 6.0.1). Protein bands were quantified using ImageJ software version 1.52a (NIH Bethesda), whereby signal intensity was normalized to signal intensity from GADPH from the same sample as a loading control. Phosphorylation levels were normalized against the total levels of p38. Densitometric quantification of three independent immunoblots was determined by changes in protein or phosphoprotein content normalized to GADPH total protein loading controls, with values expressed as fold increase. Data are shown as mean ± SD. Statistical analysis included one-way ANOVA with significance levels set at 0.05, followed by posthoc Dunnett’s tests.
For orientation: In western blotting, separated proteins are transferred to a membrane and probed.

The conditions of data set [6]: for comparison; no reference given; cited from earlier work.
Data set [7] has as its system total Na+ currents in rat DRG neurons. The experiment in a line: Whole-cell patch-clamp of Na+ currents in dissociated DRG neurons. The format is cell-based. The following applies: for V 1/2 activation, total Na+ / V 1/2 inactivation, total Na+: mean ± SEM (n cells). (In general: Patch clamp records ionic current or voltage across a cell membrane.)
Description: Recordings were obtained from acutely dissociated DRG neurons obtained from female rats as described earlier. Patch-clamp recordings were performed at room temperature (22–24 °C). Currents were recorded using an EPC 10 Amplifier-HEKA (HEKA Elektronik, Ludwigshafen, Germany) linked to a computer with Patchmaster software.
To determine the effect of VEGFA application on voltage-gated sodium currents, we incubated DRG neurons for 30 min with recombinant rat VEGFA, 1 nM (Cat#P4853, Abnova, Taipei, Taiwan) before whole-cell patch-clamp recordings. […] For the control condition, DRG neurons were incubated for 30 min with DMSO at a final concentration of 0.1%.
For Na^+ current (I Na+) recordings, the external solution contained (in mM): 130 NaCl, 3 KCl, 30 tetraethylammonium chloride, 1 CaCl2, 0.5 CdCl2, 1 MgCl2, 10 D-glucose and 10 HEPES (pH 7.3 adjusted with NaOH, and mOsm/L = 315). Patch pipettes were filled with an internal solution containing (in mM): 140 CsF, 1.1Cs-EGTA, 10 NaCl, and 15 HEPES (pH 7.3 adjusted with CsOH, and mOsm/L = 300). Peak Na^+ current was acquired by applying 150 ms voltage steps from – 70 to +60 mV in 5-mV increments from a holding potential of – 60 mV to obtain the current–voltage (I–V) relation.
Normalization of currents to each cell’s capacitance (pF) was performed to allow for collection of current density data. For I–V curves, functions were fitted to data using a nonlinear least-squares analysis. I–V curves were fitted using double Boltzmann functions: f=a+g1/(1+exp((x−V1/21)/k1))+g2/(1+exp(−(x−V1/22)/k2)) where x is the membrane potential, V 1/2 is the midpoint potential and k is the corresponding slope factor for single Boltzmann functions. Double Boltzmann fits were used to describe the shape of the curve, not to imply the existence of separate channel populations. Numbers 1 and 2 simply indicate first and second midpoints; a along with g are fitting parameters.
Activation curves were obtained from the I–V curves by dividing the peak current at each depolarizing step by the driving force according to the equation: G = I/(V mem – E rev), where I is the peak current, V mem is the membrane potential and E rev is the reversal potential. The conductance (G) was normalized against the maximum conductance (G max). Steady-state inactivation (SSI) curves were obtained by applying an H-infinity protocol that consisted of 1-s conditioning prepulses from −120 to +10 mV in 10-mV increments followed by a 200 ms test pulse to +10 mV. Inactivation curves were obtained by dividing the peak current recorded at the test pulse by the maximum current (I max). Activation and SSI curves were fitted with the Boltzmann equation.
Data set [8] relates to VEGFA-induced aversion to mechanical stimuli in rats. Description: Conditioned place aversion (CPA) to 10 g vF stimulation after VEGFA. The format is in vivo, rat. As to the method: as §1
The experiments were conducted in a two-chamber device based on the protocols from and as previously described. The protocol includes 4 × 10 min of sequential tests of preconditioning (10 min), conditioning (2 × 10 min) and testing (10 min). During preconditioning, the animal is allowed free access to two connected chambers (30 × 30 × 19 cm), each associated with a scented lip-balm applied to the walls. Immediately following preconditioning, a divider was applied between the chambers, and the rats were conditioned to either stimuli or no-stimuli for 10 min in each chamber. The stimuli consisted of repeated stimulation with a 10 g VF-filament every 30 s for the 10 min that the subject was contained in that chamber, while no stimuli (NS) was applied in the other chamber. The order and side of conditioning was alternated between subjects. Following the conditioning, the divider was removed, and the rat was allowed free access to both chambers for the 10 min test. Animal movements in each chamber were recorded by a camera above, and the duration of time spent in each chamber was recorded during preconditioning and test phase. Decreased time spent in a chamber during the test versus preconditioning indicated avoidance for that chamber and was calculated as a CPA-score: time in VF-chamber during preconditioning – time in VF-chamber during test.

[9] abbreviates: 30 μM, 15 min prior to VEGFA165 stimulation.

“Also recorded” adds a separate entry of the source. Like-named read-outs stand apart in the source and are kept apart here. Marks after values point to notes of the source that are not given here.

As for `CN(C)c1nc(CNc2cc(S(=O)(=O)Nc3ccsc3C(=O)N[C@@H](CCCNC(=N)N)C(=O)O)c3ncccc3c2)cs1.O=CO` [Compound 12g, (2S)-2-[[3-[[6-[[2-(Dimethylamino)-thiazol-4-yl]-methylamino]-8-quinolyl]-sulfonylamino]-thiophene-2-carbonyl]-amino]-5-guanidino-pentanoic Acid, Formic Acid], the “SPR NRP1 b1 domain equilibrium KD” value at NRP1 b1 domain was “did not converge; also recorded: Curve fit does not converge”. In data set [1], the AUC(0-inf) worked out at 491 ng·h/mL, the AUC(0-t) was 490 ng·h/mL, the peak concentration (Cmax) amounted to 2050 ng/mL and the time to peak (Tmax) worked out at 4.8 min. In data set [1], this compound showed a distribution volume (Vd) of 0.569 L/kg and a half-life of 23.4 min. In [1] (iv, 2 mg/kg), this compound returned a clearance of 67.9 mL/min/kg. The AUC in data set [1] (read-out: AUCall) stood at 490 ng·h/mL. Also, on NRP1-a1,b1, the IC50 is below 500 nM. Also, the solubility entry in [2] is listed as “poor solubility”.
For the compound `NC(N)=NCCCC(NC(=O)c1sccc1NS(=O)(=O)c1cccc2nsnc12)C(=O)O` (stereo not shown) [EG00229, reference compound], the dissociation constant Kd on NRP1 b1 domain (read-out: SPR NRP1 b1 domain equilibrium KD) stood at 2710 ± 130 nM. The “effect on VEGFA-induced mechanical allodynia” value in [3] (10 μM coinjected with VEGFA, male rats) is recorded as “produced significant antinociceptive effects”. Besides, in data set [3] (30 μM coinjected with VEGFA165 10 nM, 50 μL intraplantar, male and female rats), the “effect on VEGFA-induced mechanical allodynia (paw withdrawal threshold, AUC 0-6 h)” value was “comparable antinociceptive effects in males and females”. Moreover, the “p38 phosphorylation when added alone” value in [4] (30 μM alone, 5 min) is reported as “induced p38 phosphorylation”; in [5] (30 μM alone, 5 min), “induced p38 kinase phosphorylation”. Besides, in [4] (setting [9]), the “effect on VEGFA-induced p38 phosphorylation in retinal endothelium” value is listed as “prevented VEGFA-induced p38 phosphorylation”. In addition, the “effect on VEGFA-induced p38 phosphorylation” value in data set [5] (setting [9]) is “prevented VEGFA-induced p38 phosphorylation”. The half-life in data set [6] was 34.8 min. In addition, in data set [7] (30 μM alone, 30 min), the “effect on Na+ currents, alone” value is listed as “Neither EG00229 nor 12h alone had any obvious effect”. The “effect on VEGFA-induced increase in Na+ currents and current density” value in [7] (30 μM, then VEGFA165 1 nM 30 min, small-sized DRG neurons) is recorded as “equally reduced”. For the same compound, the “V 1/2 activation, total Na+” value in data set [7] (compound 30 μM + VEGFA) is “–16.384 ± 0.773 (15) ^b mV”; in data set [7] (compound alone, 30 μM) it was “–15.229 ± 0.972 (10) ^b mV”. For the same compound, the “V 1/2 inactivation, total Na+” value in data set [7] (compound 30 μM + VEGFA) was “–49.707 ± 2.554 (15) mV”; in data set [7] (compound alone, 30 μM) it was “–49.108 ± 2.415 (10) mV”. Further, the “effect on VEGFA-induced aversion in CPA-paradigm” value in data set [8] (10 μM, male rats) is given as “had no effect”. The “VEGFA-induced aversion (time in vF-conditioned chamber)” value in data set [8] (30 μM coinjected with VEGFA 10 nM, male and female rats) was “prevented the stimulus-aversion from VEGFA in both sexes; also recorded: the aversion was prevented”. Further, in data set [8] (30 μM, female rats), the “CPA-score vs VEGFA/vehicle” value is “showed a significant effect”.

A word on the AUC(0-inf): it is total exposure, with the tail of the curve extrapolated. A higher AUC(0-inf) goes with high exposure. Usually AUC(0-t) stands for exposure summed from dosing to a finite time, without extrapolation to infinity. Low readings indicate low exposure, high ones high exposure. For orientation: Cmax means the maximum level reached in the sampled fluid or tissue. The Tmax is the time at which the peak concentration occurs. In general, Vd refers to the apparent volume that relates the amount in the body to the concentration in plasma or blood. The term half-life denotes the time in which the quantity being followed falls by half. One may read the clearance as the rate of elimination divided by the concentration. Low values mean inefficient removal, high ones efficient removal. By IC50 is commonly meant the concentration that gives 50% inhibition. The term Kd denotes the equilibrium constant for the complex coming apart.

Values taken from PMC12624434 (ACS Pharmacology & Translational Science, 2025).
